Measurements published in the NIST ThermoML archive (doi:10.1016/j.fluid.2011.11.022).

Details: Liquid; for mass density: Buoyancy - hydrostatic balance; for viscosity: Falling or rolling sphere viscometry

OCCOCCOCCO [triethylene glycol]
Details | mass density [kg/m3] | viscosity [mPa·s]
298.15 K, 98 kPa | 1119.75 | 36.82
298.15 K, 49030 kPa | 1143.46 | 55.23
298.15 K, 98060 kPa | 1161.38 | 80.29
298.15 K, 147100 kPa | 1175.25 | 114.4
298.15 K, 196130 kPa | 1189.31 | 160.6
298.15 K, 245160 kPa | 1200.31 | 221.8
312.96 K, 98 kPa | 1109.61 | 19.03
313.05 K, 49030 kPa | 1134.18 | 27.42
313.1 K, 98060 kPa | 1152.38 | 38.28
313.18 K, 147100 kPa | 1166.44 | 52.5
313.25 K, 196130 kPa | 1180.35 | 70.68
313.26 K, 245160 kPa | 1191.47 | 93.99
334.96 K, 98 kPa | 1093.69 | 9.002
335.11 K, 49030 kPa | 1119.52 | 12.45
335.14 K, 98060 kPa | 1138.49 | 16.7
335.2 K, 147100 kPa | 1153.34 | 22.03
335.25 K, 196130 kPa | 1167.46 | 28.48
335.26 K, 245160 kPa | 1178.87 | 36.37
349.25 K, 98 kPa | 1082.8 | 5.945
349.94 K, 196130 kPa | 1158.94 | 17.53
349.98 K, 49030 kPa | 1109.01 | 8.061
349.98 K, 98060 kPa | 1128.74 | 10.66
349.99 K, 245160 kPa | 1170.6 | 21.84
350.03 K, 147100 kPa | 1144.4 | 13.75
364.44 K, 98 kPa | 1070.74 | 4.131
364.44 K, 49030 kPa | 1098.31 | 5.537
364.72 K, 98060 kPa | 1118.72 | 7.149
365.03 K, 147100 kPa | 1135.26 | 9.021
365.07 K, 196130 kPa | 1150.26 | 11.24
365.2 K, 245160 kPa | 1162.2 | 13.8
413.73 K, 98 kPa | 1028.27 | 1.679
414 K, 49030 kPa | 1058.03 | 2.179
414.15 K, 98060 kPa | 1082.77 | 2.836
414.27 K, 147100 kPa | 1104.57 | 3.32
414.3 K, 196130 kPa | 1122.57 | 3.995
414.43 K, 245160 kPa | 1136 | 4.485
462.25 K, 98 kPa | 981.42 | 0.997
462.26 K, 49030 kPa | 1013.43 | 1.303
462.32 K, 98060 kPa | 1044.24 | 1.614
462.41 K, 147100 kPa | 1073.54 | 1.941
462.45 K, 196130 kPa | 1096.35 | 2.3
462.58 K, 245160 kPa | 1111.83 | 2.678
